Among the test systems are PC-3 prostate; IGROV1 ovarian; RXF 393 renal; HCT-116 colon; SF-295 CNS; NCI-H23 lung; OVCAR-3 ovarian; KM12 colon; K-562 leukemia; HCC-2998 colon.
Assay in all cases: DTP human tumour cell line panel, 48 h

The source of these data is PubChem BioAssay (NCI).

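Cells were grown in 96-well plates and exposed to each compound for 48 hours at five concentrations; endpoints were interpolated linearly between bracketing concentrations, or set to the highest concentration if not reached. GI50 is the concentration that inhibits growth by half. The concentration for full growth arrest is given as TGI.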 Some results are limits rather than exact numbers.

One may read the GI50 as the concentration giving 50% growth inhibition. The TGI is the concentration at which net growth stops. `COc1ccc(-c2nn3ncccc3c2-c2ccnc(Nc3ccc(F)c(F)c3)n2)cc1`: the GI50 in the test on PC-3 prostate is 8.7 µM; in the test with IGROV1 ovarian, 8.47 µM; in the test with RXF 393 renal, 7.45 µM; with HCT-116 colon it was 7.15 µM; with SF-295 CNS, 4.26 µM; with NCI-H23 lung, 11.5 µM. Besides, the GI50 in the test with OVCAR-3 ovarian was 11.8 µM; with KM12 colon, 9.45 µM; in the test on K-562 leukemia it was 6.57 µM; in the test with HCC-2998 colon, 6.72 µM. Also, the TGI with PC-3 prostate was > 25 µM; with IGROV1 ovarian, 24.5 µM; in the test on RXF 393 renal it was > 25 µM; with HCT-116 colon, > 25 µM; in the test on SF-295 CNS, > 25 µM; in the test with NCI-H23 lung it was > 25 µM. For the same compound, the TGI with OVCAR-3 ovarian, in the test with KM12 colon, in the test on K-562 leukemia and with HCC-2998 colon was > 25 µM each time.
Take `COc1cccc2c1C(=O)c1c(O)c3c(c(O)c1C2=O)C[C@@](O)(/C(C)=N/NC(=O)c1cccc([N+](=O)[O-])c1)C[C@@H]3OC1CC(N)C(O)C(C)O1` (stereo partly specified): the GI50 with PC-3 prostate is 0.616 µM; in the test with IGROV1 ovarian, 0.932 µM; with RXF 393 renal it was 0.494 µM; with HCT-116 colon, 0.131 µM; with SF-295 CNS, 0.187 µM; in the test with NCI-H23 lung it was 0.316 µM. The GI50 in the test with OVCAR-3 ovarian is 0.396 µM; with KM12 colon, 0.404 µM; in the test on K-562 leukemia, 0.356 µM; with HCC-2998 colon, 0.326 µM. Further, the TGI with PC-3 prostate was 8.74 µM; in the test on RXF 393 renal it was 2.21 µM; in the test with HCT-116 colon, 5.25 µM; in the test with SF-295 CNS, 0.997 µM; with NCI-H23 lung, 2.87 µM; with OVCAR-3 ovarian, 5.26 µM. For the same compound, the values for the TGI in the test on KM12 colon, in the test with K-562 leukemia and in the test with HCC-2998 colon were 10.9 µM, 5.16 µM and 2.77 µM, respectively.
In the case of `COc1cc2c(cc1OCCCCCOc1ccc(-c3nc4ccccc4s3)cc1)N=C[C@@H]1CCCN1C2=O`, the GI50 with PC-3 prostate was 1.14 µM; with IGROV1 ovarian, 4.39 µM; in the test with RXF 393 renal, 1.46 µM; with HCT-116 colon it was 1.23 µM; in the test on SF-295 CNS, 2.37 µM; in the test on NCI-H23 lung it was 2.6 µM. For the same compound, the GI50 in the test with OVCAR-3 ovarian is 1.54 µM; in the test on KM12 colon, 4.38 µM; in the test on K-562 leukemia, 0.914 µM; in the test on HCC-2998 colon, 3.02 µM. Moreover, the TGI is 7.04 µM with PC-3 prostate; 43.5 µM in the test with IGROV1 ovarian; 5.43 µM with RXF 393 renal; 12.4 µM in the test with HCT-116 colon; > 100 µM with SF-295 CNS; 10.5 µM in the test with NCI-H23 lung. Further, the TGI in the test with OVCAR-3 ovarian was > 44 µM; with KM12 colon it was 22.9 µM; with K-562 leukemia, 12.2 µM; with HCC-2998 colon, 9.06 µM.
As to `[Cu].c1ccc2c(c1)C1=NC2=NC2=NC(=NC3=NC(=NC4=NC(=N1)c1ccccc14)c1ccccc13)c1ccccc12`, the GI50 in the test on PC-3 prostate, in the test on IGROV1 ovarian, with RXF 393 renal, in the test on HCT-116 colon, in the test with SF-295 CNS and in the test on NCI-H23 lung was > 100 µM each time. Also, the GI50 with OVCAR-3 ovarian, with KM12 colon, with K-562 leukemia and in the test with HCC-2998 colon was > 100 µM each time. The TGI in the test with PC-3 prostate, in the test with IGROV1 ovarian, with RXF 393 renal, in the test on HCT-116 colon, with SF-295 CNS and in the test with NCI-H23 lung was > 100 µM each time. For the same compound, the TGI with OVCAR-3 ovarian, in the test on KM12 colon, in the test with K-562 leukemia and in the test with HCC-2998 colon was > 100 µM in each case.
For the compound `CC(C)(C)CNCCO`, the TGI in the test on PC-3 prostate, in the test with IGROV1 ovarian, in the test with RXF 393 renal, in the test on HCT-116 colon, with SF-295 CNS and with NCI-H23 lung was > 100 µM in each case. The TGI with OVCAR-3 ovarian, with KM12 colon, in the test on K-562 leukemia and with HCC-2998 colon was > 100 µM in each case.
`CCCCCCCCCCCC1=NC(C)(C)CN1C(C)C`: the GI50 in the test on PC-3 prostate was 2.12 µM; in the test with IGROV1 ovarian, 1.64 µM; in the test with RXF 393 renal it was 2.17 µM; with HCT-116 colon, 2.83 µM; in the test with SF-295 CNS it was 3.05 µM; with NCI-H23 lung it was 2.98 µM. Moreover, the GI50 was 1.94 µM in the test with OVCAR-3 ovarian, 1.94 µM in the test with KM12 colon, 1.94 µM in the test with K-562 leukemia and 1.71 µM in the test on HCC-2998 colon. Besides, the TGI turned out to be 11.1 µM with PC-3 prostate; 4.53 µM with IGROV1 ovarian; 5.33 µM in the test on RXF 393 renal; 10.4 µM in the test with HCT-116 colon; 10.7 µM in the test with SF-295 CNS; 11.3 µM in the test with NCI-H23 lung. Besides, the TGI was determined as 6.14 µM in the test with OVCAR-3 ovarian, 3.96 µM in the test on KM12 colon, 5.82 µM in the test on K-562 leukemia and 3.27 µM in the test on HCC-2998 colon.
Take `CC(C)CC(NC(=O)C(O)C(N)Cc1ccccc1)C(=O)O` (stereo unspecified): the TGI in the test with PC-3 prostate, in the test with IGROV1 ovarian, with RXF 393 renal, in the test on HCT-116 colon, in the test with SF-295 CNS and in the test with NCI-H23 lung was > 100 µM in each case. The TGI in the test with OVCAR-3 ovarian, in the test on KM12 colon, with K-562 leukemia and with HCC-2998 colon was > 100 µM throughout.
For the compound `C[C@]12CC[C@H]3[C@@H](CCC4=CC(=O)CC[C@@]43C)[C@]1(O)CC[C@]2(O)C(=O)CO`, the TGI with PC-3 prostate, with IGROV1 ovarian, with RXF 393 renal, with HCT-116 colon, in the test with SF-295 CNS and in the test on NCI-H23 lung was > 100 µM in each case. In addition, the TGI with OVCAR-3 ovarian, in the test with KM12 colon, in the test with K-562 leukemia and in the test on HCC-2998 colon was > 100 µM each time.
In the case of `COc1ccc2c(c1[N+](=O)[O-])CC[C@@H]1[C@@H]2CC[C@]2(C)C(=O)CC[C@@H]12`, the GI50 in the test on PC-3 prostate was > 684 µM; with IGROV1 ovarian, 741 µM; in the test with RXF 393 renal, 432 µM; with HCT-116 colon, > 1000 µM; in the test with SF-295 CNS it was 342 µM; in the test with NCI-H23 lung, 679 µM. For the same compound, the GI50 was 631 µM with OVCAR-3 ovarian, > 1000 µM in the test with KM12 colon, > 1000 µM in the test on K-562 leukemia and > 25 µM in the test with HCC-2998 colon. In addition, the TGI with IGROV1 ovarian is > 1000 µM; in the test with RXF 393 renal, > 927 µM; in the test with SF-295 CNS, > 968 µM; in the test with NCI-H23 lung, > 1000 µM; in the test on OVCAR-3 ovarian it was > 1000 µM; in the test with KM12 colon it was > 1000 µM. Also, the TGI with HCC-2998 colon was > 1000 µM.
